Results on six molecules are retold here after patent publication US12371464B2, “Polypeptides and uses thereof” (MEDIMMUNE LIMITED, priority 2020, dated 2025).

Numbered stars: 1 amine (or outer) side, 2 acyl side, 3 side chain; on linkers, the order of the positions; unused ones are H or OH. Bridge positions count the residues as written; N and C are the ends. Square brackets hold non-standard residues; d marks the D form. Side chains are listed from the residue outwards. Peptide text beside a SMILES is read from it. * marks the point of attachment. C18 diacid = O=C(O)CCCCCCCCCCCCCCCCC(=O)*; γGlu = O=C(O)[C@H](CCC(=O)[*:2])N[*:1]; αMeF = C[C@](N)(Cc1ccccc1)C(=O)O; AEEA = NCCOCCOCC(=O)O; Aib = CC(C)(N)C(=O)O

This series in a line: Thioflavin T fibrillation assay. The format is physicochemical. As to conditions: 1 mg/mL in 25 mM sodium acetate buffer pH 4.0, 37° C., 6 days, orbital shaking; >144 h = no increase. The text has this: Peptide aggregation that form fibrils is an indication of physical instability. Fibril formation in solution poses a significant risk for the stability of injectable peptide drug products. Thioflavin T (ThT) fibrillation assay is a useful tool to assess the aggregation kinetics of a peptide or protein under accelerated and stressed conditions that can be used to forecast the long-term viability of a compound in solution. ThT can selectively bind amyloid fibrils and the resultant complex emits strong fluorescence signal at 482 nm when excited at 450 nm (Anal Biochem. 1989 March; 177 (2): 244-9). Monitoring of the change in fluorescence signal is an established method to study the fibril forming potential of peptides and proteins. ThT (purchased from Sigma Aldrich) stock solution is prepared by dissolving the ThT powder in Milli-Q water and filtered to obtain a 0.25 mM solution. The concentration of the solution is measured at 412 nm using an extinction coefficient of 36 mM-1 cm-1. Test peptides were dissolved at 1 mg/mL in 25 mM sodium acetate buffer pH 4.0. 100 μL aliquot of peptide solution and 5 μL aliquot of ThT solution were placed in a clear bottom black fluorescence 96-well plate. 5 replicates of each test samples were placed in the same row of the plate. Buffer was placed in control wells for baseline correction. All empty wells were filled with water to prevent evaporation. The plate was sealed with aluminium seal and placed in fluorescence plate reader and incubated for 6 days at 37° C. with intermittent orbital shaking at 500 to 750 rpm. The fluorescence intensity was measured every 30 min using excitation at 444 nm and emission at 480 nm. The fibril forming potential of the test peptides was determined by measuring the average time taken to detect an increase in baseline corrected fluorescence intensity.
Take `CC[C@H](C)[C@H](NC(=O)[C@@H]1CCCN1C(=O)CNC(=O)[C@H](Cc1ccccc1)NC(=O)[C@H](CC(N)=O)NC(=O)[C@H](CC(N)=O)NC(=O)[C@H](CO)NC(=O)[C@H](CO)NC(=O)[C@H](Cc1c[nH]cn1)NC(=O)[C@@H](NC(=O)[C@H](CC(C)C)NC(=O)[C@H](Cc1ccccc1)NC(=O)[C@H](CC(N)=O)NC(=O)[C@H](C)NC(=O)[C@H](CC(C)C)NC(=O)[C@H](CCCNC(=N)N)NC(=O)[C@H](CCC(N)=O)NC(=O)[C@@H](NC(=O)[C@H](C)NC(=O)[C@@H]1CSSC[C@H](NC(=O)[C@@H](N)CCCCNC(=O)CC[C@H](NC(=O)CCCCCCCCCCCCCCCCC(=O)O)C(=O)O)C(=O)N[C@@H](CC(N)=O)C(=O)N[C@@H]([C@@H](C)O)C(=O)N[C@@H](C)C(=O)N[C@@H]([C@@H](C)O)C(=O)N1)[C@@H](C)O)C(C)C)C(=O)N[C@H](CC(C)C)C(=O)N1CCC[C@H]1C(=O)N1CCC[C@H]1C(=O)N[C@H](C(=O)N[C@@H](CC(N)=O)C(=O)N[C@H](C(=O)NCC(=O)N[C@@H](CO)C(=O)N[C@@H](CC(N)=O)C(=O)N[C@H](C(=O)N[C@@H](Cc1ccc(O)cc1)C(N)=O)[C@@H](C)O)C(C)C)[C@@H](C)O` [Peptide 103, K(γE-C18diacid)[CNTATC]ATQRLANFLVHSSNNFGPI(dL)PPTNVGSNTY-amide] (H-K([γGlu-C18 diacid])CNTATCATQRLANFLVHSSNNFGPI[dL]PPTNVGSNTY-NH2; disulfide 2-7; N-terminus assumed): the “Time taken to detect increase in fluorescence intensity” value (shortened to “Time taken to detect increase”) was under 5 h. Consider `CC[C@H](C)[C@H](NC(=O)[C@@H]1CCCN1C(=O)CNC(=O)[C@](C)(Cc1ccccc1)NC(=O)[C@H](CC(N)=O)NC(=O)[C@H](CC(N)=O)NC(=O)[C@H](CO)NC(=O)[C@H](CO)NC(=O)[C@H](Cc1c[nH]cn1)NC(=O)[C@@H](NC(=O)[C@H](CC(C)C)NC(=O)[C@H](Cc1ccccc1)NC(=O)[C@H](CC(N)=O)NC(=O)[C@H](C)NC(=O)[C@H](CC(C)C)NC(=O)[C@H](CCCNC(=N)N)NC(=O)[C@H](CCC(N)=O)NC(=O)[C@@H](NC(=O)[C@H](C)NC(=O)[C@@H]1CSSC[C@H](NC(=O)[C@@H](N)CCCCNC(=O)CC[C@H](NC(=O)CC[C@H](NC(=O)CCCCCCCCCCCCCCCCC(=O)O)C(=O)O)C(=O)O)C(=O)N[C@@H](CC(N)=O)C(=O)N[C@@H]([C@@H](C)O)C(=O)N[C@@H](C)C(=O)N[C@@H]([C@@H](C)O)C(=O)N1)[C@@H](C)O)C(C)C)C(=O)N[C@@H](CC(C)C)C(=O)N1CCC[C@H]1C(=O)N1CCC[C@H]1C(=O)N[C@H](C(=O)N[C@@H](CC(N)=O)C(=O)N[C@H](C(=O)NCC(=O)N[C@@H](CO)C(=O)N[C@@H](CCCNC(=N)N)C(=O)N[C@H](C(=O)N[C@@H](Cc1ccc(O)cc1)C(N)=O)[C@@H](C)O)C(C)C)[C@@H](C)O` [Peptide 21, K(γE-γE-C18diacid)[CNTATC]ATQRLANFLVHSSNN(αMePhe)GPILPPTNVGSRTY-amide] (H-K([γGlu-γGlu-C18 diacid])CNTATCATQRLANFLVHSSNN[αMeF]GPILPPTNVGSRTY-NH2; disulfide 2-7; N-terminus assumed), for which the “Time taken to detect increase” value was over 144 h. Consider `CC[C@H](C)[C@H](NC(=O)[C@@H]1CCCN1C(=O)CNC(=O)[C@H](Cc1ccccc1)NC(=O)[C@H](CC(N)=O)NC(=O)C(C)(C)NC(=O)[C@H](CO)NC(=O)[C@H](CO)NC(=O)[C@H](Cc1c[nH]cn1)NC(=O)[C@@H](NC(=O)[C@H](CC(C)C)NC(=O)[C@H](Cc1ccccc1)NC(=O)[C@H](CC(N)=O)NC(=O)[C@H](C)NC(=O)[C@H](CC(C)C)NC(=O)[C@H](CCCNC(=N)N)NC(=O)[C@H](CCC(N)=O)NC(=O)[C@@H](NC(=O)[C@H](C)NC(=O)[C@@H]1CSSC[C@H](NC(=O)[C@H](CCCCN)NC(=O)[C@@H](N)CCCCNC(=O)CC[C@H](NC(=O)CCCCCCCCCCCCCCCCC(=O)O)C(=O)O)C(=O)N[C@@H](CC(N)=O)C(=O)N[C@@H]([C@@H](C)O)C(=O)N[C@@H](C)C(=O)N[C@@H]([C@@H](C)O)C(=O)N1)[C@@H](C)O)C(C)C)C(=O)N[C@@H](CC(C)C)C(=O)N1CCC[C@H]1C(=O)N1CCC[C@H]1C(=O)N[C@H](C(=O)N[C@@H](Cc1c[nH]cn1)C(=O)N[C@H](C(=O)NCC(=O)N[C@@H](CO)C(=O)N[C@@H](CC(N)=O)C(=O)N[C@H](C(=O)N[C@@H](Cc1ccc(O)cc1)C(N)=O)[C@@H](C)O)C(C)C)[C@@H](C)O` [Peptide 40, K(γE-C18diacid)K[CNTATC]ATQRLANFLVHSS(Aib)NFGPILPPTHVGSNTY-amide] (H-K([γGlu-C18 diacid])KCNTATCATQRLANFLVHSS[Aib]NFGPILPPTHVGSNTY-NH2; disulfide 3-8; N-terminus assumed), for which the “Time taken to detect increase” value was over 144 h. Under `CC[C@H](C)[C@H](NC(=O)[C@@H]1CCCN1C(=O)CNC(=O)[C@](C)(Cc1ccccc1)NC(=O)[C@H](CC(N)=O)NC(=O)[C@H](CC(N)=O)NC(=O)[C@H](CO)NC(=O)[C@H](CO)NC(=O)[C@H](Cc1c[nH]cn1)NC(=O)[C@H](CCCNC(=N)N)NC(=O)[C@H](CC(C)C)NC(=O)[C@H](Cc1ccccc1)NC(=O)[C@H](CCC(=O)O)NC(=O)[C@H](C)NC(=O)[C@H](CC(C)C)NC(=O)[C@H](CCCNC(=N)N)NC(=O)[C@H](CCC(N)=O)NC(=O)[C@@H](NC(=O)[C@H](C)NC(=O)[C@@H]1CSSC[C@H](NC(=O)[C@@H](N)CCCCNC(=O)CC[C@H](NC(=O)CC[C@H](NC(=O)CCCCCCCCCCCCCCCCC(=O)O)C(=O)O)C(=O)O)C(=O)N[C@@H](CC(N)=O)C(=O)N[C@@H]([C@@H](C)O)C(=O)N[C@@H](C)C(=O)N[C@@H]([C@@H](C)O)C(=O)N1)[C@@H](C)O)C(=O)N[C@@H](CC(C)C)C(=O)N1CCC[C@H]1C(=O)N1CCC[C@H]1C(=O)N[C@H](C(=O)N[C@@H](CC(N)=O)C(=O)N[C@H](C(=O)NCC(=O)N[C@@H](CO)C(=O)N[C@@H](CC(N)=O)C(=O)N[C@H](C(=O)N[C@@H](Cc1ccc(O)cc1)C(N)=O)[C@@H](C)O)C(C)C)[C@@H](C)O` [Peptide 11, K(γE-γE-C18diacid)[CNTATC]ATQRLAEFLRHSSNN(αMePhe)GPILPPTNVGSNTY-amide] (H-K([γGlu-γGlu-C18 diacid])CNTATCATQRLAEFLRHSSNN[αMeF]GPILPPTNVGSNTY-NH2; disulfide 2-7; N-terminus assumed) stands over 144 h. Under `CC[C@H](C)[C@H](NC(=O)[C@@H]1CCCN1C(=O)CNC(=O)[C@](C)(Cc1ccccc1)NC(=O)[C@H](CC(N)=O)NC(=O)[C@H](CC(N)=O)NC(=O)[C@H](CO)NC(=O)[C@H](CO)NC(=O)[C@H](Cc1c[nH]cn1)NC(=O)[C@H](CCCNC(=N)N)NC(=O)[C@H](CC(C)C)NC(=O)[C@H](Cc1ccccc1)NC(=O)[C@H](CC(N)=O)NC(=O)[C@H](C)NC(=O)[C@H](CC(C)C)NC(=O)[C@H](CCCNC(=N)N)NC(=O)[C@H](CCC(N)=O)NC(=O)[C@@H](NC(=O)[C@H](C)NC(=O)[C@@H]1CSSC[C@H](NC(=O)[C@@H](N)CCCCNC(=O)COCCOCCNC(=O)COCCOCCNC(=O)CC[C@H](NC(=O)CCCCCCCCCCCCCCCCC(=O)O)C(=O)O)C(=O)N[C@@H](CC(N)=O)C(=O)N[C@@H]([C@@H](C)O)C(=O)N[C@@H](C)C(=O)N[C@@H]([C@@H](C)O)C(=O)N1)[C@@H](C)O)C(=O)N[C@@H](CC(C)C)C(=O)N1CCC[C@H]1C(=O)N1CCC[C@H]1C(=O)N[C@H](C(=O)N[C@@H](CCC(=O)O)C(=O)N[C@H](C(=O)NCC(=O)N[C@@H](CO)C(=O)N[C@@H](CC(N)=O)C(=O)N[C@H](C(=O)N[C@@H](Cc1ccc(O)cc1)C(N)=O)[C@@H](C)O)C(C)C)[C@@H](C)O` [Peptide 17, K(O2Oc-O2Oc-γE-C18diacid)[CNTATC]ATQRLANFLRHSSNN(αMePhe)GPILPPTEVGSNTY-amide] (H-K([AEEA-AEEA-γGlu-C18 diacid])CNTATCATQRLANFLRHSSNN[αMeF]GPILPPTEVGSNTY-NH2; disulfide 2-7; N-terminus assumed) stands over 144 h; under `CC[C@H](C)[C@H](NC(=O)[C@H](C)NC(=O)[C@@H]1CCCN1C(=O)[C@H](Cc1ccccc1)NC(=O)[C@H](CC(N)=O)NC(=O)C(C)(C)NC(=O)[C@H](CO)NC(=O)[C@H](CO)NC(=O)[C@H](Cc1c[nH]cn1)NC(=O)[C@@H](NC(=O)[C@H](CC(C)C)NC(=O)[C@H](Cc1ccccc1)NC(=O)[C@H](CC(N)=O)NC(=O)[C@H](C)NC(=O)[C@H](CC(C)C)NC(=O)[C@H](CCCNC(=N)N)NC(=O)[C@H](CCC(N)=O)NC(=O)[C@@H](NC(=O)[C@H](C)NC(=O)[C@@H]1CSSC[C@H](NC(=O)[C@@H](N)CCCCNC(=O)CC[C@H](NC(=O)CC[C@H](NC(=O)CCCCCCCCCCCCCCCCC(=O)O)C(=O)O)C(=O)O)C(=O)N[C@@H](CC(N)=O)C(=O)N[C@@H]([C@@H](C)O)C(=O)N[C@@H](C)C(=O)N[C@@H]([C@@H](C)O)C(=O)N1)[C@@H](C)O)C(C)C)C(=O)N[C@@H](CC(C)C)C(=O)N[C@@H](CO)C(=O)N1CCC[C@H]1C(=O)N[C@H](C(=O)N[C@@H](CC(N)=O)C(=O)N[C@H](C(=O)NCC(=O)N[C@@H](CO)C(=O)N[C@@H](CC(N)=O)C(=O)N[C@H](C(=O)N[C@@H](Cc1ccc(O)cc1)C(N)=O)[C@@H](C)O)C(C)C)[C@@H](C)O` [Peptide 9, K(γE-γE-C18diacid)[CNTATC]ATQRLANFLVHSS(Aib)NFPAILSPTNVGSNTY-amide] (H-K([γGlu-γGlu-C18 diacid])CNTATCATQRLANFLVHSS[Aib]NFPAILSPTNVGSNTY-NH2; disulfide 2-7; N-terminus assumed), 7 h.
